# In patent US4218443A, “Polyether ionophores as antiobesity and hypotriglyceridemic agents” (Hoffmann-La Roche Inc., priority 1979, dated 1980):
# Where two headings read alike, the source gives them in different places.
# Legend:
# human pancreatic lipase = biological target: T1, human pancreatic lipase (Homo sapiens, UniProt P16233); test: In vitro titrimetric (Radiometer pH-stat) pancreatic lipase assay, Dixon plots; assay type: biochemical; details: in vitro Radiometer assay, read-out: Inhibition constants for bromolasalocid inhibition of human pancreatic lipase
# T1 construct: Human pancreatic juice was obtained from a patient with acute pancreatitis; from tissue; host or cells: human pancreatic juice from the cannulated duct of a patient with acute pancreatitis; gift of Dr. George Nardi, Massachusetts General Hospital
# T1 sequence (P16233 17-465): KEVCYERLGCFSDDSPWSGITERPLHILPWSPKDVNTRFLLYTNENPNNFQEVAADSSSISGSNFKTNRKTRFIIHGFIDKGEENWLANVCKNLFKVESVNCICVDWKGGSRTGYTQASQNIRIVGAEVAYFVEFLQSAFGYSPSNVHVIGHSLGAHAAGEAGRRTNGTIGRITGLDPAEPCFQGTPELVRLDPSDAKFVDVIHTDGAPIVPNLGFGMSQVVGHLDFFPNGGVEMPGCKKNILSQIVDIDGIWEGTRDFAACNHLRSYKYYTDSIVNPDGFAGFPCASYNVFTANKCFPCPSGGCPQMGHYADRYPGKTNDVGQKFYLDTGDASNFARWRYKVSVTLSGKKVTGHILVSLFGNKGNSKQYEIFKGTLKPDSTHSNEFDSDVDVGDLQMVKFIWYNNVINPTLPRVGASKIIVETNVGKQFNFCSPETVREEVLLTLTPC
# [1] = test system: hepatic fatty acid synthesis; test: In vivo hepatic fatty acid synthesis in meal-fed rats; set-up: species or system Charles River rat; details: 60 mg/kg i.p., sodium salt, mean ± SE
# Description: (§1) In the following examples, female rats (Charles River CD strain, 180-200 g) were housed individually in wire bottom cages in a temperature (22°) and light (12 hr light and 12 hr dark) regulated room. They had free access to Purina Rodent Chow and water.
# [2] = test system: meal-fed Charles River rats; test: Food consumption and serum parameters in meal-fed rats (in vivo fatty acid synthesis experiments); set-up: species or system Charles River rat; details: 60 mg/kg i.p., sodium salt, mean ± SE
# Description: as §1
# Faster enzymatic procedure for serum triglycerides, Clinical Chemistry, 21: 1983-1985], cholesterol, [C. C. Allain, L. Poon, S. G. Chan, W. Richmond and P. Fu (1974). Enzymatic determination of total serum cholesterol, Clinical Chemistry, 20: 470-475] and glucose, [R. Konig, H. Dauwalder and R. Richterich (1971). Vergleichende Bestimmunogen der Uringlucosekonzentration mit der Polarimetrie und einer enzymatischen Methode (Hexokinase/Glucose-6-Phosphat-Dehydrogenase), Schweiz. Med. Wschr., 101: 860-866] by enzymatic procedures.
# [3] = test system: fatty acid synthesis in isolated hepatocytes; test: In vitro fatty acid synthesis in isolated hepatocytes; assay type: cell-based, Charles River female rat; details: Rattus norvegicus, Hepatocyte, 1 h, pH 7.4; for activity at 500 µM: 0.5 mM; for activity at 1000 µM: 1.0 mM
# Description: Hepatocytes were prepared from meal-fed Charles River female rats as described previously, [A. C. Sullivan, J. Triscari, J. G. Hamilton and J. A. Ontko (1977). Hypolipidemic activity of (-)-hydroxycitrate, Lipids, 12: 1-9]. Briefly, rats were anesthetized with Nembutal, livers were perfused in situ and hepatocytes were isolated in Krebs-Henseleit bicarbonate buffer, pH 7.4. Incubations with isolated hepatocytes were performed in triplicate at 37° C. Each incubation flask contained in a total volume of 2.1 ml, 10.5 mg cells (dry weight), 1 ml of Krebs-Henseleit buffer, pH 7.4, radioactive substrate (1 μCi [U-^14 C]alanine, 1 mCi^3 H2 O and 1 μmole alanine) and 0.3% glucose. The appropriate concentration of inhibitor was prepared in dimethylsulfoxide and added to the incubation flask. Dimethylsulfoxide had no effect on fatty acid synthesis. ^3 H2 O was used to determine the total rate of fatty acid synthesis independently of carbon precursors of acetyl CoA. [^14 C]alanine was used as an acetyl CoA precursor. Rates of fatty acid synthesis were determined as described previously, [A. C. Sullivan, J. Triscari, J. G. Hamilton and J. A. Ontko (1977). Hypolipidemic activity of (-)-hydroxycitrate, Lipids, 12: 1-9]. Data are expressed as nmoles ^3 H2 O or [^14 C]alanine converted into fatty acids per mg dry weight cells in 60 minutes.
# pancreatic lipase = biological target: T2, pancreatic lipase (Rattus norvegicus, UniProt P27657); test: In vitro pancreatic lipase screen ([14C]-triolein assay); assay type: biochemical; details: read-out: Pancreatic Lipase Activity I50
# T2 construct: stimulated to release pancreatic proteins by addition of 10^-5 M carbachol; from tissue; host or cells: pancreatic lobules of fasted Charles River female rats; released pancreatic juice, centrifuged
# T2 sequence (P27657 17-465): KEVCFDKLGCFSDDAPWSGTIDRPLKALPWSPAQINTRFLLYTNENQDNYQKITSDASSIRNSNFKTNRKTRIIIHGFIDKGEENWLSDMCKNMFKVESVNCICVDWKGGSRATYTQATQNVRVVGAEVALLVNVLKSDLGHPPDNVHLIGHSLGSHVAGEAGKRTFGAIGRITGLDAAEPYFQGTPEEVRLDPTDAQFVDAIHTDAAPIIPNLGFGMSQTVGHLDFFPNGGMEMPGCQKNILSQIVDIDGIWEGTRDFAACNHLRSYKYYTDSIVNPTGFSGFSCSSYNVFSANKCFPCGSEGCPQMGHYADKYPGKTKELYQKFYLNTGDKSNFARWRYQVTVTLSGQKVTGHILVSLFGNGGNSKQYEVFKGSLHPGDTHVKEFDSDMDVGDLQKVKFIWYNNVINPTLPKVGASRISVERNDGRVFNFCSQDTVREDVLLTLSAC
# Description: The method for assaying pacreatic lipase in vitro using [^14 C]-triolein was based on the method of Garfinkel and Schotz for lipoprotein lipase, [A. S. Garfinkel and M. C. Schotz (1972). […] Glycerol tri[1-^14 C]oleate (32 mM) was emulsified in 0.2 M Tris-HCl pH 8 containing 0.15 M NaCl, bovine serum albumin (15 mg/ml) and sodium taurocholate (1.4 mM) by sonication for three, one min intervals at 80 watts. Final assay volume was 1.0 ml. The reaction was initiated by the addition of enzyme and was allowed to proceed for 10 min. The reaction was linear for up to 20 min. The liberated free fatty acids were extracted into 0.1 M KOH and quantitated in a liquid scintillation counter using 2,5-bis-2-(5-tertbutylbenzoxazolyl)-tniophene (BBOT) scintillation fluid (Yorktown Research, South Hackensack, N.J.).
# Ionophores were added to the above assay as solutions in either 90% ethanol or water, pH 8; 90% ethanol had no effect on the enzyme activity assayed by either method.
# [4] = test system: intestinal absorption of triglycerides (corn oil); test: In vivo absorption of triglycerides (corn oil absorption)
# [5] = read-out: Fatty Acid Synthesis 3H2O
# [6] = read-out: Fatty Acid Synthesis [14C]alanine
# [7] = Experiment 1, di-(N-methylglucamine), 325 mg/kg p.o.
# [8] = Experiment 1, ethanolate, 145 mg/kg p.o.
# [9] = Experiment 1, sodium, 140 mg/kg p.o.
compound,measurement,setting,value
"CC[C@@H](C(=O)[C@@H](C)[C@@H](O)[C@H](C)CCc1c(Br)cc(C)c(O)c1C(=O)O)[C@H]1O[C@](CC)([C@H]2CC[C@](O)(CC)[C@H](C)O2)C[C@@H]1C [Bromolasalocid, Ethanolate]",Ki,human pancreatic lipase,100 µM
"CC[C@@H](C(=O)[C@@H](C)[C@@H](O)[C@H](C)CCc1c(Br)cc(C)c(O)c1C(=O)O)[C@H]1O[C@](CC)([C@H]2CC[C@](O)(CC)[C@H](C)O2)C[C@@H]1C [Bromolasalocid, di-(N-methylglucamine)]",Ki,human pancreatic lipase,160 µM
Monensin,Fatty Acid Synthesis 3H2O converted,[1],14.8 ± 4.0 μmoles per 1 g liver in 30 min
same,Fatty Acid Synthesis [14C]alanine converted,[1],209 ± 64 nmoles per 1 g liver in 30 min
same,Food Consumption,[2],16.1 ± 1.4 g
"CC[C@@H](C(=O)[C@@H](C)[C@@H](O)[C@H](C)CCc1c(Br)cc(C)c(O)c1C(=O)O)[C@H]1O[C@](CC)([C@H]2CC[C@](O)(CC)[C@H](C)O2)C[C@@H]1C [Bromolasalocid, Na^+]",Ki,human pancreatic lipase,50 µM
same,activity at 500 µM,[3]; [5],14%
same,activity at 500 µM,[3]; [6],0%
same,activity at 1000 µM,[3]; [5],22%
same,activity at 1000 µM,[3]; [6],0%
CC[C@@H](C(=O)[C@@H](C)[C@@H](O)[C@H](C)CCc1c(Br)cc(C)c(O)c1C(=O)O)[C@H]1O[C@](CC)([C@H]2CC[C@](O)(CC)[C@H](C)O2)C[C@@H]1C [Bromolasalocid],IC50,pancreatic lipase,600 µM
same,Area under curve (corn oil absorption),[4]; [7],660
same,"Area under curve, % of control",[4]; [7],60 % of control
same,Area under curve (corn oil absorption),[4]; [8],704
same,"Area under curve, % of control",[4]; [8],64 % of control
same,Area under curve (corn oil absorption),[4]; [9],659
same,"Area under curve, % of control",[4]; [9],60 % of control
